For 100 molecules, cytotoxicity results are on record in ChEMBL document CHEMBL3507680, “University of Dundee, Gates Library screen for HepG2 cell viability”.

A short description of the data set: Human HepG2 cell viability assay in 384 well format. Format: toxicity, cell-based. Also on record: dose 125 nL, time 70.5 hour; cytotoxicity at 70.5 h: concentration not given beside the values. The conditions noted are these: HepG2 cells, read-out: Inhibition.

Molecules are shown by their SMILES.

For the molecule `Cc1nnc(N(CCC#N)CCC#N)s1`, the cytotoxicity at 70.5 h was -5.52%. The result for `O=C(NCc1cccnc1)c1cn(CCc2ccccc2)nn1` reads 14%; that for `CCC(C)(C)n1nnnc1C(c1cccs1)N1CCCCC1` (stereo not given), -3.15%; that for `COc1ccc(CNC(=O)c2cc3c(nc2O)CCC(C)C3)cc1` (stereo not given), -8.97%. For the molecule `COC(=O)c1ccc(C2SCC(=O)Nc3ccsc32)cc1` (stereo not given), the cytotoxicity at 70.5 h is -8.05%. For `O=C1CSC(c2ccc(O)cc2)c2sccc2N1` (stereo not given) the value was 3%; for `O=C1CC(c2cccs2)Cc2nc(O)c(C(=O)N3CCCC3)cc21` (stereo not given), -4.55%. Regarding `CCOc1ccc(-n2ccc3nc(N4CCCC4)ncc3c2=O)cc1`, the cytotoxicity at 70.5 h is -2.37%.

For the molecule `O=c1c2cnc(N3CCCCC3)nc2ccn1-c1ccccc1F`, the cytotoxicity at 70.5 h was determined as 8.21%.

For `Cc1ccccc1-n1ccc2nc(N3CCCC3)ncc2c1=O`, the cytotoxicity at 70.5 h is -13.6%.

As to `Cc1c(C)n(CC(O)CN2CCCCCC2)c2c(Cl)cccc12` (stereo not given), the cytotoxicity at 70.5 h worked out at 20.5%. For `CN1N=C(C(=O)N2CCCCC2)S(=O)(=O)c2ccccc21` the value was 1.74%; for `CSc1nc2cc(C)n(CC(N)=O)c2c(=O)n1CC(C)C`, 0.849%; for `O=c1[nH]c2nc(NCC3CCCO3)ncc2c(=O)n1-c1ccc(F)cc1` (stereo not given), 1.97%. On to `CCc1noc(-c2ccc(SCC(=O)O)nc2)n1`, for which the cytotoxicity at 70.5 h was found to be 13.8%.

Consider `COc1ccc(NC(=O)c2cnc(N(C)C3CCCCC3)nc2N)cc1`, for which the cytotoxicity at 70.5 h amounted to 2.82%. The result for `COc1ccc(Cn2c(=O)n(C)c(=O)c3sccc32)cc1` reads 3.39%; that for `COCCc1noc(-c2ccc(=O)[nH]c2)n1`, 2.52%.

Take `Cc1cccc(N2CCN(c3ccn4c(=O)[nH]nc4n3)CC2)c1C`: the cytotoxicity at 70.5 h was 3.43%.

On to `COC(=O)c1sc2nc3c(c(C(F)(F)F)c2c1N)CN(C(C)=O)CC3`, for which the cytotoxicity at 70.5 h was 5.62%. The result for `CSc1ccc(C2CC(=O)Nc3c2c(=O)[nH]c2ncnn32)cc1` (stereo not given) reads 6.12%; that for `O=C(O)c1ccc2[nH]cc(CN3CCCC3)c2c1`, 6.43%.

On to `COc1ccc(-c2cnc(NC(C)=O)[nH]2)cc1`, for which the cytotoxicity at 70.5 h was found to be 10.1%.

Take `CC(=O)c1sc2nc3c(c(C(F)(F)F)c2c1N)CN(C(C)=O)CC3`: the cytotoxicity at 70.5 h is 8.25%. Take `O=C1CC(C2CCCCC2)c2c(n(C3CCCC3)[nH]c2=O)N1` (stereo not given): the cytotoxicity at 70.5 h is 2.99%. The result for `CCOCCNS(=O)(=O)c1ccc2c3c1CCCN3C(=O)CO2` reads 33.6%; that for `O=C1COc2ccc(S(=O)(=O)NCC3CCCO3)c3c2N1CCC3` (stereo not given), 1.71%; that for `O=C1COc2ccc(S(=O)(=O)NCc3ccccc3)c3c2N1CCC3`, 4.09%. As to `Cc1cc(NCCO)nc(N2CCN(C)CC2)c1C#N`, the cytotoxicity at 70.5 h amounted to 1.33%. For the molecule `Cc1nc(C#N)c(N2CCC(c3nc(-c4ccc(F)cc4)no3)CC2)o1`, the cytotoxicity at 70.5 h stood at 28.5%. The result for `CC(C)N1C(=O)CC(N2CCN(c3ccc(F)cc3)CC2)C1=O` (stereo not given) reads 6.65%. The result for `CNC(=O)c1sccc1N(C)S(=O)(=O)c1ccc(Cl)cc1` reads 19.5%; that for `CCNC(=O)c1sccc1N(C)S(=O)(=O)c1ccc(Cl)cc1`, 1.21%; that for `CN(C)CCNC(=O)c1sccc1N(C)S(=O)(=O)c1ccc(Cl)cc1`, -17.4%. For `O=C(c1cc(-n2cnnn2)ccc1Cl)N1CCN(c2ccccc2)CC1` the value was -1.12%; for `CC(C)n1ncc2c1NC(=O)CC2c1ccccc1Cl` (stereo not given), -6.71%; for `Cn1ncc2c1NC(=O)CC2c1c(Cl)cccc1Cl` (stereo not given), -16.4%. As to `Cc1cccc(NC(=O)c2nn(C3CCS(=O)(=O)C3)c3c2CCCC3)n1` (stereo not given), the cytotoxicity at 70.5 h is -27.2%. As for `Cn1ncc2c1NC(=O)CC2c1c(F)cccc1Cl` (stereo not given), the cytotoxicity at 70.5 h was -5.11%. As for `COc1cccc(C2SCC(=O)Nc3n[nH]cc32)c1OC(C)C` (stereo not given), the cytotoxicity at 70.5 h was -20.4%. For `NC(=O)C1CCN(C(=O)c2cc(-n3cnnn3)ccc2Cl)CC1` the value was -14.1%. For the molecule `COC(=O)CNC(=O)c1c(-n2cnnn2)sc2c1CCCC2`, the cytotoxicity at 70.5 h was -14.5%. The result for `Oc1nc(N2CCCC2)nc2nccc(-c3ccccn3)c12` reads -22.4%; that for `CC(C)CCn1[nH]c(CNc2ccc(F)cc2)nc1=O`, -10.3%. For `Cn1ncc2c1NC(=O)CC2c1cc(Cl)ccc1F` (stereo not given) the value was 47.5%.

For the molecule `Cn1ncc2c1NC(=O)CC2c1ccccc1Br` (stereo not given), the cytotoxicity at 70.5 h is -12.4%. For `CC(C)CCn1nc(CNc2ccc(Br)cc2)nc1O` the value was -17.8%; for `CNc1nc2c(s1)C(c1ccccc1F)CC(=O)N2` (stereo not given), 9.16%. As for `Cc1cc(O)c(OCC(=O)Nc2nc3c(s2)CCCC3)cn1`, the cytotoxicity at 70.5 h was -22.4%. Take `Cc1cc(NC(=O)c2nn(C3CCS(=O)(=O)C3)c3c2CCCC3)no1` (stereo not given): the cytotoxicity at 70.5 h was -24.1%. Regarding `CCc1c(C(=O)O)nnn1-c1cc(C)ccc1C`, the cytotoxicity at 70.5 h was -2.96%. The result for `CCOc1cc(=O)n2c(c1C(=O)OCc1cccc(C)c1)CCCC2` reads -11.3%; that for `CCn1nccc1CNC(=O)C1CC1`, -10.1%.

Turning to `Cc1nn(C)c2c(NCc3ccccc3F)nc(C3CC3)nc12`, the cytotoxicity at 70.5 h is -5.5%. The result for `Cc1nc(NCc2cccnc2)c2c(n1)c(C)nn2C` reads -11.5%; that for `Cc1ncc2c(n1)CCCC2NC(=O)c1ccncc1` (stereo not given), 14.6%; that for `O=C1CCOC[C@]2(CN(Cc3ccccc3)C[C@H]2c2ccccc2F)N1`, 1.5%. The result for `c1cnc(N2CCCC(c3csc(Nc4cnccn4)n3)C2)nc1` (stereo not given) reads 19.8%; that for `CCCC(=O)N1CCC(Nc2nc(O)cc(-c3ccsc3)n2)CC1`, -3.98%; that for `O=C(C1CC1)N1CCC(Nc2nc(O)cc(-c3ccsc3)n2)CC1`, -8.33%. Take `CNC(=O)[C@@H]1CN(C(=O)COC)C[C@H]1c1ccnc(N2CCCC2)n1`: the cytotoxicity at 70.5 h is -5.21%.

In the case of `COCCC(=O)NCc1ccc(-c2ccccc2C(=O)O)nc1`, the cytotoxicity at 70.5 h was -3.04%.

In the case of `CC(C)C(=O)NC(Cc1cc(N(C)C)nc(C2CC2)n1)c1ccccc1` (stereo not given), the cytotoxicity at 70.5 h was 3.43%. Turning to `Cc1nc(CCC(N)=O)cc(C2CCCCN2S(C)(=O)=O)n1` (stereo not given), the cytotoxicity at 70.5 h is -1.31%. The result for `c1cc(C2CCN(c3cnccn3)CC2)ccn1` reads 17.3%; that for `Cc1nc(CN2CCCC2c2[nH]ncc2C(=O)N(C)C)cs1` (stereo not given), -2.79%.

Consider `CN(C)c1ccc(C2CCN(c3cnccn3)CC2)nc1`, for which the cytotoxicity at 70.5 h is 6.87%. For `Cc1nc(C)c(CC(=O)N2CCC(c3ccn4nccc4n3)CC2)s1` the value was -1.07%; for `CC(C)N1CCCC(c2cc(C(F)(F)F)nc3nccn23)C1` (stereo not given), -0.494%. For `CN1CCc2nnc(C3CCCN3S(=O)(=O)c3ccc(F)cc3)n2CC1` (stereo not given) the value was -3.97%; for `c1cnnc(N[C@@H]2CC[C@@H]3CN(Cc4ccc5[nH]ccc5c4)C[C@@H]32)c1`, 2.98%.

In the case of `Cc1cc(N2CCC(O)(CN(C)C(=O)CCN)C2)c2cnccc2n1` (stereo not given), the cytotoxicity at 70.5 h was -4.6%. As to `Cc1cc(N2CCC(O)(CN(C)C(=O)CCCN)C2)c2cnccc2n1` (stereo not given), the cytotoxicity at 70.5 h was -0.861%. For `Cc1cn([C@H]2CCNC[C@]2(C)O)c(=O)[nH]c1=O` the value was 4.8%. For the molecule `CCN1CCCc2cc(CN3CCc4nc(C)[nH]c(=O)c4C3)ccc21`, the cytotoxicity at 70.5 h is -0.248%. In the case of `CCN1CCCc2cc(CN3CCc4c(nc(C)[nH]c4=O)C3)ccc21`, the cytotoxicity at 70.5 h was -3.71%. On to `Cc1cc(-c2ccc(=O)n(CCNC(=O)C3CCC3)n2)c(C)o1`, for which the cytotoxicity at 70.5 h turned out to be 15.6%. For `Cc1cc(-c2ccc(=O)n(CCNC(=O)C3CCCCC3)n2)c(C)o1` the value was -1.98%. Regarding `CN(C)c1nccc(C2CN(c3cnccn3)CCO2)n1` (stereo not given), the cytotoxicity at 70.5 h amounted to 13.3%.

With `Cc1nc(NCCN2CCCC2=O)cc(C2CN(C)CCO2)n1` (stereo not given), the cytotoxicity at 70.5 h amounted to 1.86%. In the case of `CCc1cc(=O)[nH]c(NC2CCN(S(=O)(=O)c3ccccc3)CC2)n1`, the cytotoxicity at 70.5 h was -7.53%.

In the case of `Cc1ccc(-c2nc(C3CCN(C(=O)c4ccnn4C)CC3)no2)cn1`, the cytotoxicity at 70.5 h is -7.4%. For `O=C1CCC(c2nc(C3CCNCC3)no2)N1` (stereo not given) the value was -6.87%. For `O=C1CCC(c2nc(C3CCN(C(=O)C4CC4)CC3)no2)N1` (stereo not given) the value was -4.42%; for `Cn1cc(CN2CCc3nc4ccccc4c(=O)n3CC2)cn1`, -1.93%; for `Cc1cc(Nc2ccc(F)cn2)cc(C2CCCN2)n1` (stereo not given), -7.05%. The result for `CS(=O)(=O)N[C@@H]1CN(Cc2ccc3ccccc3c2)C[C@H]1O` reads -2.76%.

With `O=C(NC[C@]1(O)CN(Cc2ncccc2F)C[C@H]1O)c1cc[nH]n1`, the cytotoxicity at 70.5 h worked out at 21.3%. The result for `O=C(NC[C@]1(O)CCN(Cc2ccccc2F)C[C@H]1O)c1c[nH]cn1` reads -0.237%; that for `Cc1cncc(CN2CC[C@@](O)(CNC(=O)c3c[nH]cn3)[C@H](O)C2)c1`, -6.5%; that for `Cc1ocnc1C(=O)N(C)[C@@H]1CCC[C@@H](N2CCCC2)[C@@H]1O`, 25.2%. For `Cc1nccn1[C@@H]1CC[C@@H](NC(=O)CCCn2cccn2)[C@H]1O` the value was 19.3%. In the case of `Cc1c(C)n(CC(O)CN2CCOCC2)c2c(Cl)cccc12` (stereo not given), the cytotoxicity at 70.5 h came to 11.2%. The result for `Cc1c(C)n(CC(O)CN2CCN(CCO)CC2)c2c(Cl)cccc12` (stereo not given) reads 10%; that for `CCNCc1ccc(OCc2ccc3c(c2)OCCO3)cc1`, 22.5%; that for `c1cnc(Nc2cncc(C3CCCN3)n2)cn1` (stereo not given), -3.08%. As for `CN(C)c1ncc(-c2cccc(C(N)=O)c2)c(C2CNCCO2)n1` (stereo not given), the cytotoxicity at 70.5 h is -1.28%.

On to `COc1ccc(-c2cnc(N(C)C)nc2C2CNCCO2)cc1` (stereo not given), for which the cytotoxicity at 70.5 h is -4.32%. On to `COc1ccc(CN(Cc2ccco2)Cc2[nH]cnc2C)c(OC)c1`, for which the cytotoxicity at 70.5 h was -8.31%. Turning to `COc1cccc(CN(Cc2ccco2)Cc2cnc(C)n2C)c1`, the cytotoxicity at 70.5 h worked out at 3.46%.
